# “Also recorded” adds a separate entry of the source. Like-named read-outs stand apart in the source and are kept apart here.
# What was measured:
# murine IL-4 receptor = settings: cited from earlier work
# human IL-4 receptor = settings: murine ligand; cited from earlier work
# IL-4 receptor = assay: Radiolabeled IL-4 binding after adenovirus-polylysine-DNA transduction of IL-4 receptor; settings: adenovirus-polylysine-DNA conjugates
# [1] = native somatostatin; cited from earlier work
# [2] = test system: SKOV3.ip1 tumors expressing mGRPr; assay: Biodistribution and pharmacokinetics of radiolabeled bombesin analogue in mice bearing i.p. SKOV3.ip1 tumors infected with AdCMVGRPr; format: in vivo, human SKOV3.ip1 tumors in athymic nude mice
# Experimental: All biodistribution studies were performed in female Balb/c athymic nude mice obtained at 4-5 weeks of age from Frederick Research Laboratory (Frederick, Md.). The peptide mIP-Des-Met-bombesin(7-13)NH2 was synthesized using solid phase peptide synthesis at the UAB Comprehensive Cancer Center Peptide Synthesis and Analysis Shared Facility and has been described elsewhere. Mice were injected i.p. with 2×10^7 SKOV3.ip1 human ovarian carcinoma cells. Five days following cell inoculation, mice were injected i.p. with 1×10^9 pfu of a recombinant adenoviral vector expressing mGRPr. Animals were then injected i.p. 48 hours later with 2 μCi of [^125 I]-mIP bombesin. Mice were sacrificed at 0.5, 2, 5, 15, 30 min and 1, 4, 8, 12 and 24 hours following peptide injection (n=4-10/group) and the following organs were dissected: blood, heart, lungs, liver, stomach, small intestine, spleen, kidney, skin, bone, muscle, uterus, peritoneal lining and thyroid. In addition, tumor nodules were removed from each mouse. All organs, and tumors were weighed and the activity counted in a gamma counter. The % ID/g for each tissue was calculated except for the thyroid in which only the % ID was determined.
# Descriptive statistics were calculated to examine the distribution and variation of time concentration of radiolabeled antibody and peptide, and tissue to blood ratio data (means and standard deviations). Means at each specific time point were calculated from multiple mice data for both tissue concentration and tissue to blood ratios. Mean concentration data (% ID/g) over time was used for pharmacokinetical modeling. The pharmacokinetical parameters were estimated by using the NLIN procedure of Statistical Analysis System programs. Selection of models was based on comparison of Akaike's Information Criterion, the minimization of the model's mean squared error and standard error of the estimated model parameters, and the graphical diagnostics of the model fit.
# Four different pharmacokinetic models, including one and two compartment elimination models along with one and two-compartment models with an absorption phase were required to fit the time concentration curves for the peptide. […] For each of these, the elimination t1/2 was calculated along with Cmax and AUC. A one-compartment model with an absorption phase was determined to be the best model for abdominal lining and muscle data. For each of these, the elimination t1/2 values for each compartment were calculated along with Cmax and AUC. A two-compartment model with an absorption phase was the best model for blood, kidney, and small intestine data. For each of these, elimination t1/2 values for each compartment and the absorption t1/2 value was calculated along with Cmax, Tmax and AUC.
# mGRPr expressing cells = assay: Internalization and intracellular retention in mGRPr expressing cells; format: cell-based, murine
# mGRPr = assay: Binding to murine GRP receptor
# [3] = test system: murine gastrin releasing peptide receptor (mGRP-R); assay: Radiolabeled bombesin binding after adenovirus-polylysine-mediated transfection of GRPr; settings: AdpL, versus uninfected controls
# Source text: Next, gene mediated expression of receptors was applied in the context of inducing expression of a receptor that could be targeted with a radiolabeled peptide and thus employed the gene encoding the murine gastrin releasing peptide receptor (mGRP-R). The first technique utilized the methodology of an adenovirus-polylysine-mediated transfection (AdpL) to accomplish transient gene expression of mGRP-R in human lung cancer cells.
# SSTR2 = settings: cited from earlier work
compound,measurement,setting,value
human IL-4: human IL-4,binding to the murine receptor,murine IL-4 receptor; human IL-4,does not exhibit binding
Murine IL-4: glycoprotein with an approximate molecular weight of 19 kD,binding to the human receptor,human IL-4 receptor,does not exhibit binding
^125 I-labeled IL-4: ^125 I-labeled IL-4,radiolabeled IL-4 binding to transduced cells,IL-4 receptor,specific binding
same,Ka,"murine IL-4 receptor; ^125 I-IL-4, transduced COS-7 cells",10^9 -10^10 M^-1
C[C@H](N)C(=O)NCC(=O)N[C@H]1CSSC[C@@H](C(=O)O)NC(=O)[C@H](CO)NC(=O)[C@H]([C@@H](C)O)NC(=O)[C@H](Cc2ccccc2)NC(=O)[C@H]([C@@H](C)O)NC(=O)[C@H](CCCCN)NC(=O)[C@H](Cc2c[nH]c3ccccc23)NC(=O)[C@H](Cc2ccccc2)NC(=O)[C@H](Cc2ccccc2)NC(=O)[C@H](CC(N)=O)NC(=O)[C@H](CCCCN)NC1=O [Somatostatin],plasma half-life,[1],minutes
[^125 I]-mIP-Des-Met^14 -bombesin(7-13)NH2 [[^125 I]-mIP-bombesin],concentration in tumor (highest),"[2]; 30 sec after injection, 0.5 min",33.6±18.2 % ID/g
same,tumor to blood ratio relative to antibody,"[2]; 30 sec, versus e21",24.8 fold
same,tumor localization at 4 hours post injection versus [^125 I]-Tyr-bombesin,[2]; 4 hours post injection,much greater
same,concentration in tumor,[2]; 24 hours after injection,2.5±2.8 % ID/g
same,tumor to blood ratio relative to antibody,"[2]; 24 hours, versus e21",15.4 fold
same,AUC,[2]; abdominal lining,160.9 percent ID × h/g
same,Cmax,[2]; abdominal lining,47.7 percent ID/g
same,t1/2α,[2]; abdominal lining,0.1 h
same,t1/2β,[2]; abdominal lining,6.5 h
same,AUC,[2]; blood,8.0 percent ID × h/g
same,Cmax,[2]; blood,1.5 percent ID/g
same,Tmax,[2]; blood,0.6 h
same,t1/2α,[2]; blood,0.8 h
same,t1/2β,[2]; blood,6.7 h
same,AUC,[2]; bone,12.8 percent ID × h/g
same,Cmax,[2]; bone,1.1 percent ID/g
same,t1/2β,[2]; bone,7.9 h
same,AUC,[2]; heart,8.3 percent ID × h/g
same,Cmax,[2]; heart,0.9 percent ID/g
same,t1/2β,[2]; heart,6.6 h
same,AUC,[2]; kidney,44.8 percent ID × h/g
same,Cmax,[2]; kidney,15.3 percent ID/g
same,Tmax,[2]; kidney,0.5 h
same,t1/2α,[2]; kidney,0.4 h
same,t1/2β,[2]; kidney,4.7 h
same,tumor to blood ratio,[2]; level after drop from initial peak and rise,about 50
same,AUC,[2]; liver,49.2 percent ID × h/g
same,Cmax,[2]; liver,9.8 percent ID/g
same,t1/2β,[2]; liver,3.5 h
same,AUC,[2]; lung,7.6 percent ID × h/g
same,Cmax,[2]; lung,1.3 percent ID/g
same,Tmax,[2]; lung,0.05 h
same,t1/2β,[2]; lung,4.1 h
same,AUC,[2]; muscle,12.4 percent ID × h/g
same,Cmax,[2]; muscle,3.6 percent ID/g
same,t1/2α,[2]; muscle,0.6 h
same,t1/2β,[2]; muscle,7.7 h
same,AUC,[2]; skin,5.9 percent ID × h/g
same,Cmax,[2]; skin,1.0 percent ID/g
same,Tmax,[2]; skin,0.4 h
same,t1/2β,[2]; skin,3.7 h
same,AUC,[2]; small intestine,112 percent ID × h/g
same,Cmax,[2]; small intestine,41.7 percent ID/g
same,Tmax,[2]; small intestine,0.3 h
same,t1/2α,[2]; small intestine,0.6 h
same,t1/2β,[2]; small intestine,8.3 h
same,AUC,[2]; spleen,71.7 percent ID × h/g
same,Cmax,[2]; spleen,10.9 percent ID/g
same,t1/2β,[2]; spleen,4.6 h
same,AUC,[2]; stomach,172.3 percent ID × h/g
same,Cmax,[2]; stomach,10.2 percent ID/g
same,Tmax,[2]; stomach,0.05 h
same,t1/2β,[2]; stomach,11.7 h
same,AUC,[2]; tumor,193.1 percent ID × h/g
same,Cmax,[2]; tumor,25.6 percent ID/g
same,t1/2β (clearance half-life),[2]; tumor,5.2 h
same,AUC,[2]; uterus,182.8 percent ID × h/g
same,Cmax,[2]; uterus,29.2 percent ID/g
same,t1/2β,[2]; uterus,4.3 h
same,"peak tumor to blood ratio, bombesin analogue relative to antibody",[2]; versus e21,12.6 fold
same,internalization versus [^125 I]-Tyr-bombesin,mGRPr expressing cells,higher internalization
same,intracellular retention versus [^125 I]-Tyr-bombesin,mGRPr expressing cells,longer intracellular retention
same,intracellular retention versus [^125 I]-Tyr-bombesin,mGRPr expressing cells; listed as modified seven amino acid analogue of bombesin,longer retention time within cells
same,binding to mGRPr,mGRPr,high affinity binding
^125 I-labeled bombesin: ^125 I-labeled bombesin,radiolabeled bombesin binding to transduced cells,[3],specific binding; also recorded: successfully demonstrated
C[C@@H](O)[C@@H]1NC(=O)[C@H](CCCCN)NC(=O)[C@@H](Cc2c[nH]c3ccccc23)NC(=O)[C@H](Cc2ccccc2)NC(=O)[C@@H](NC(=O)[C@H](N)Cc2ccccc2)CSSC[C@@H](C(=O)N[C@H](CO)[C@@H](C)O)NC1=O [Octreotide],binding to SSTR2,SSTR2,binds with high affinity

# Reference: US5902583A, “Genetic induction of receptors for targeted radiotherapy” (priority 1997, dated 1999)
